The values that follow come from PubChem BioAssay (NCI).

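A five-concentration, 48-hour dose response in 96-well plates underlies each endpoint, interpolated linearly between surrounding concentrations. At the TGI there is no net growth.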 *1 amine or outer side, *2 acyl side, *3 side chain or, on linkers, in order; H or OH if unused. Where a SMILES comes first, the peptide text is derived from it. [ ]: non-standard residue; d: D form. X33 = C=CCC(O[*:1])C(=O)[*:2]; NMeV = CN[CH](C(=O)O)C(C)C; NMeA = CN[CH](C)C(=O)O; βAla = NCCC(=O)O

As a reminder, the TGI is the concentration giving total growth inhibition. Low values mean greater sensitivity of the cells, high ones lower sensitivity of the cells.

Some test systems named below: IGROV1 ovarian; OVCAR-5 ovarian; SN12C renal; SNB-75 CNS; MDA-MB-231 breast; EKVX NSCLC; HCT-15 colon; OVCAR-8 ovarian; A498 renal; OVCAR-4 ovarian; RXF 393 renal; NCI-H460 lung; MOLT-4 leukemia; SK-OV-3 ovarian; SK-MEL-28 melanoma; UO-31 renal; MALME-3M melanoma; CCRF-CEM leukemia; HS 578T breast.
Holding throughout (assay): DTP human tumour cell line panel, 48 h

Turning to `CCOP(=O)(OCC)C1=C(c2ccccc2)OC(N)=C(C#N)C1c1ccc(Cl)cc1` (centres undefined), the concentration for total growth inhibition (TGI) in the assay with IGROV1 ovarian, in the assay on OVCAR-5 ovarian, with SN12C renal, in the assay with SNB-75 CNS, in the assay with MDA-MB-231 breast and in the assay on EKVX NSCLC was more than 100 µM in each case. Further, the TGI in the assay with HCT-15 colon, in the assay on OVCAR-8 ovarian, with A498 renal, with OVCAR-4 ovarian, in the assay with RXF 393 renal and in the assay on NCI-H460 lung was more than 100 µM in each case. The TGI with MOLT-4 leukemia, in the assay with SK-OV-3 ovarian, with SK-MEL-28 melanoma, in the assay on UO-31 renal, with MALME-3M melanoma and in the assay on CCRF-CEM leukemia was more than 100 µM in each case.
Turning to `O=C1C(=Nc2ccccc2)Oc2cc(O)ccc21`, the total growth inhibition concentration (TGI) in the assay on IGROV1 ovarian, in the assay on OVCAR-5 ovarian, with SN12C renal, in the assay on SNB-75 CNS, in the assay with MDA-MB-231 breast and in the assay on EKVX NSCLC was more than 100 µM in each case. Further, the TGI with HCT-15 colon, with OVCAR-8 ovarian, in the assay on A498 renal, with OVCAR-4 ovarian, in the assay on RXF 393 renal and with NCI-H460 lung was more than 100 µM throughout. Also, the TGI in the assay with MOLT-4 leukemia, with SK-OV-3 ovarian, in the assay with SK-MEL-28 melanoma, in the assay on UO-31 renal, in the assay on MALME-3M melanoma and with CCRF-CEM leukemia was more than 100 µM each time.
In the case of `NNCCc1n[nH]c(=O)n1N`, the TGI with IGROV1 ovarian, in the assay on OVCAR-5 ovarian, in the assay with SN12C renal, with HS 578T breast, in the assay on SNB-75 CNS and with MDA-MB-231 breast was more than 100 µM each time. For the same compound, the TGI in the assay with EKVX NSCLC, in the assay with HCT-15 colon, with OVCAR-8 ovarian, with OVCAR-4 ovarian, in the assay with RXF 393 renal and in the assay on NCI-H460 lung was more than 100 µM throughout. Also, the TGI with MOLT-4 leukemia, in the assay with SK-OV-3 ovarian, in the assay on SK-MEL-28 melanoma, in the assay on UO-31 renal, in the assay with MALME-3M melanoma and in the assay on CCRF-CEM leukemia was more than 100 µM throughout.
As for `NC(CCCCNC(=O)CNC(=O)OCc1ccccc1)C(=O)NC(CCCCNC(=O)CNC(=O)OCc1ccccc1)C(=O)NC(CCCCNC(=O)CNC(=O)OCc1ccccc1)C(=O)NC(CCCCNC(=O)CNC(=O)OCc1ccccc1)C(=O)NC(CCCCNC(=O)CNC(=O)OCc1ccccc1)C(=O)NC(CCCCNC(=O)CNC(=O)OCc1ccccc1)C(=O)O` (centres undefined), the TGI with IGROV1 ovarian, in the assay with OVCAR-5 ovarian, in the assay on SN12C renal, in the assay on SNB-75 CNS, in the assay on MDA-MB-231 breast and with HCT-15 colon was more than 75 µM in each case. The concentration for total growth inhibition (TGI) with OVCAR-8 ovarian, in the assay with A498 renal, with OVCAR-4 ovarian, in the assay with NCI-H460 lung, in the assay with MOLT-4 leukemia and in the assay with SK-MEL-28 melanoma was more than 75 µM each time. The TGI in the assay with UO-31 renal, in the assay with MALME-3M melanoma and in the assay on CCRF-CEM leukemia was more than 75 µM in each case.
Take `CC12c3c4cc(Br)cc3Oc3cc(Br)cc(c31)Oc1cc(Br)cc(c12)O4`: the TGI in the assay on IGROV1 ovarian is 86.6 µM; in the assay with OVCAR-5 ovarian, more than 100 µM; with SN12C renal, 83.4 µM; in the assay on HS 578T breast, more than 100 µM; in the assay with SNB-75 CNS, 31.3 µM; with MDA-MB-231 breast, 59.3 µM. The TGI with EKVX NSCLC was 82.6 µM; in the assay with HCT-15 colon, more than 100 µM; in the assay with OVCAR-8 ovarian, more than 100 µM; with OVCAR-4 ovarian, more than 100 µM; in the assay with NCI-H460 lung, more than 100 µM; with MOLT-4 leukemia, more than 100 µM. In addition, the TGI is more than 100 µM with SK-OV-3 ovarian, more than 100 µM in the assay with SK-MEL-28 melanoma, more than 100 µM with UO-31 renal and 37.5 µM in the assay on MALME-3M melanoma.
In the case of `NC(CCC(=O)O)(CCC(=O)O)CCC(=O)O`, the TGI in the assay with IGROV1 ovarian, in the assay on OVCAR-5 ovarian, with SN12C renal, with HS 578T breast, with SNB-75 CNS and in the assay on MDA-MB-231 breast was more than 100 µM each time. In addition, the TGI in the assay on EKVX NSCLC, with HCT-15 colon, in the assay with OVCAR-8 ovarian, in the assay on RXF 393 renal, with NCI-H460 lung and with MOLT-4 leukemia was more than 100 µM throughout. Also, the TGI in the assay on SK-OV-3 ovarian, in the assay on UO-31 renal, with MALME-3M melanoma and in the assay with CCRF-CEM leukemia was more than 100 µM each time.
In the case of `C=CCC1OC(=O)CCNC(=O)C(C)N(C)C(=O)C(C(C)C)N(C)C(=O)C(C(C)CC)NC(=O)C2CCCN2C1=O` (centres undefined) (cyclo([X33]PI[NMeV][NMeA][βAla]); configuration not given here), the TGI with IGROV1 ovarian is more than 100 µM; in the assay with OVCAR-5 ovarian, more than 100 µM; in the assay with SN12C renal, more than 100 µM; in the assay with HS 578T breast it was more than 100 µM; in the assay with SNB-75 CNS it was more than 100 µM; with MDA-MB-231 breast, 62.9 µM. In addition, the total growth inhibition concentration (TGI) in the assay with EKVX NSCLC, with HCT-15 colon, with OVCAR-8 ovarian, with OVCAR-4 ovarian, in the assay on NCI-H460 lung and in the assay with MOLT-4 leukemia was more than 100 µM each time. Moreover, the TGI with SK-MEL-28 melanoma is more than 100 µM; in the assay on UO-31 renal, 47.5 µM; in the assay on CCRF-CEM leukemia it was more than 100 µM.
On to `O=C1CC(C(=O)N2CCCCC2)n2c(=O)n(-c3ccccc3)c(=O)n2C1` (centres undefined), for which the total growth inhibition concentration (TGI) with IGROV1 ovarian, in the assay on OVCAR-5 ovarian, in the assay with HS 578T breast, in the assay with SNB-75 CNS, with MDA-MB-231 breast and with EKVX NSCLC was more than 100 µM throughout. For the same compound, the total growth inhibition concentration (TGI) in the assay on HCT-15 colon, in the assay with OVCAR-8 ovarian, with RXF 393 renal, with NCI-H460 lung, in the assay on SK-OV-3 ovarian and in the assay with UO-31 renal was more than 100 µM in each case. Also, the TGI in the assay on MALME-3M melanoma was more than 100 µM.
